From article PMC10630888, “Nuclear ERK1/2 signaling potentiation enhances neuroprotection and cognition via Importinα1/KPNA2” (EMBO Molecular Medicine, 2023)
“And” between values parts separate entries of the source, which are not always exact repeats. Equal entries are not always repeated.

Key:
[1] = system: p44 ERK1 and p42 ERK2; experiment: Western blot of pERK1/2 and total ERK1/2 in HEK293 cells; assay type: cell-based; settings: serum-starved HEK 293 cells, 50 μM, 15 min
Method: (§1) For Western blot and immunofluorescence analysis, 0.6 × 10^6 HEK293 cells were seeded in 6‐well plates in the presence of DMEM High Glucose GlutaMax (Thermo Fisher Scientific) containing 10% Foetal Bovine Serum (FBS, Thermo Fisher Scientific) and 100 U/ml penicillin/streptomycin (Thermo Fisher Scientific). For Western blot analysis to assess ERK1/2 and phospho‐ERK1/2 levels, cells were serum starved for 24 h and incubated with RB5 50 μM or FBS 20% for 15 min at 37°C. To assess JNK and phospho‐JNK levels, cells were incubated with RB5 50 μM or anisomycin 5 μM for 30 min at 37°C. For immunofluorescence analysis, cells were serum‐starved for 24 h and incubated with 50 μM RB5 or 20% FBS for 15 min at 37°C.
Cells were collected in ice‐cold lysis buffer (20 mM Tris HCl pH 7.5, 150 mM NaCl, 1% Triton, 1 mM EDTA, complete EDTA‐free protease inhibitor cocktail (Roche), 1 mM sodium orthovanadate, 1 mM sodium fluoride, 1 mM b‐glycerophosphate). Protein concentration was determined with the Biorad DC protein assay. Equal amounts of proteins ([…]) were boiled in sample buffer, separated by SDS‐PAGE, and transferred to nitrocellulose membranes (Amersham). […]

[2] = system: ERK1/2 in HEK293 cells; experiment: ERK1/2 immunofluorescence (nuclear translocation) in HEK293 cells; assay type: cell-based; settings: HEK293, siRNA 200 nM 24 h, then RB5 50 μM 15 min
Method: as §1
After rinsing in PBS, cells were fixed in 4% PFA and permeabilized with increasing concentrations of methanol (33, 50, 75, and 95% in PBS, 2 min each at room temperature), followed by 100% methanol for 10 min at −20°C. […] The mean fluorescence intensity in the nucleus was calculated automatically by Fiji‐ImageJ software in 8–10 fields per slide. […]

[3] = system: ribosomal protein S6 (Ser 235/236) phosphorylation; experiment: pS6 (Ser235/236) immunofluorescence in acute striatal slices with glutamate; assay type: cell-based, mouse; settings: peptide 50 μM 1 h, individual slices
Method: Adult C57Bl/6 mice were decapitated after cervical dislocation and brain slices were freshly prepared as previously described in Orellana et al ([2012]) and Papale et al ([2016]). Briefly, the brains were rapidly removed from the skull, submerged in ice‐cold sucrose‐based dissecting solution, and sliced into 200 μm‐thick slices using a vibratome. […] After a rapid fixation in 4% PFA, slices were rinsed and cryoprotected overnight at 4°C in 30% sucrose solution. On the following day, slices were cut into 18 μm‐thick slices using a cryostat (Leica CM1850), mounted onto SuperFrost Plus slides (Thermo Scientific) and stored at −20°C until processing for immunohistochemistry or immunofluorescence.
Immunofluorescence was performed as described in Papale et al ([2016]). Briefly, 1 h after blocking in 5% normal goat serum, slices were incubated overnight at 4°C with the following primary antibodies: anti‐phospho (Ser10)‐acetylated (Lys14) histone H3 (1:1,000, Millipore), anti‐phospho‐S6 ribosomal protein (Ser235/236) (1:200, Cell Signaling Technology) anti‐phospho‐S6 ribosomal protein (Ser240/244) (1:200, Cell Signaling), cleaved caspase‐3 (1:200, Cell Signaling Technology), anti‐mutant Huntingtin (1:100, Developmental Studies Hybridoma Bank, University of Iowa, #MW8), and NeuN (1:1,000, Millipore). Corresponding secondary antibodies (Alexa Fluor 546 conjugated anti‐mouse (1:200, Thermo Fisher Scientific), Alexa Fluor 488 conjugated anti‐rabbit (1:500, Thermo Fisher Scientific) and Pacific Blue goat anti‐mouse (1:200, Thermo Fisher Scientific) were incubated at room temperature for 1 h. Sections stained for mutant Huntingtin were incubated with DAPI for 20 min. Sections were subsequently mounted with fluorescent mounting medium (DAKO). Single and double‐labeled images ([…]) were obtained at 40× magnification from the striatum using a laser scanning confocal microscope (Leica SP2) equipped with the corresponding lasers and appropriate filter sets to avoid the crosstalk between the fluorochromes.
In ex‐vivo and in‐vivo immunofluorescence experiments, the number of p‐S6 or p‐AcH3 immunoreactive neurons among NeuN‐positive neurons was counted in 2–3 consecutive striatal sections per mouse in four fields per section. Caspase 3‐positive cells were quantified among NeuN‐positive neurons in each slide and expressed as percentage (ratio between caspase‐3‐positive cells and total NeuN‐positive neurons) for each field acquired through the slide. The number of cells showing mutant Huntingtin inclusions were expressed as a percentage of mutant Huntingtin‐positive cells among DAPI‐positive cells.

Row | Substance | p44/p42 protein levels (Western blot) [1] | p44 ERK1 and p42 ERK2 phosphorylation (Western blot) [1] | ERK1/2 nuclear translocation after KPNA2 downregulation [2] | pS6 (Ser235/236) immunoreactive neurons among NeuN-positive neurons ([3]; then glutamate 100 μM 10 min) | pS6 (Ser235/236) immunoreactive neurons among NeuN-positive neurons ([3]; then vehicle 10 min)
1 | GRKKRRQRRRPPQGGGGGEPRRTEGVGPGVPGEVEMVKGQPFDV [RB5, six D-amino acids, acetylated N-terminus] | without affecting p44/p42 protein levels | sustained a strong p44 ERK1 and p42 ERK2 phosphorylation | did not further enhance ERK1/2 nuclear translocation | blunted and 17.3997 and 19.6901 and 16.4767 and 13.6077 and 18.6740 and 17.1380 and 11.1928 and 12.0526 and 14.5710 and 10.2402 and 9.5439 and 15.5782 and 12.6217 and 14.7339 | 13.7412 and 14.9907 and 12.2371 and 13.4483 and 9.59 and 9.671 and 8.798 and 18.1241 and 17.7385 and 16.8553 and 14.4173 and 14.7976 and 16.1024 and 14.3475
2 | SCR: ineffective Scramble version of RB5 containing a TAT sequence (GRKKRRQRRRPPRVGPGVPEGVGVAVFGVKEPGQTGDVGPVGE) [reference compound] | – | – | – | 26.24 and 21.87 and 18.27 and 25.45 and 28.87 and 26.8562 and 29.1865 and 24.4192 and 22.75 and 21.51 and 19.87 and 20.18 | 12.33 and 13.90 and 11.33 and 13.09 and 9.47 and 11.58 and 11.02 and 10.86 and 14.51
